From US8937053B2, “Process for the preparation of prasugrel and several novel crystalline forms of prasugrel hydrochloride” (Sunshine Lake Pharma Co., Ltd., priority 2011, dated 2015)

Test: Solubility test (Chinese Pharmacopoeia 2010)
Assay type: physicochemical
Conditions: 0.1M HCl, 25±2° C., 300 mg ground powder sample, shaken 30 seconds at 5 minute intervals, 30 minutes total, dissolution judged by eye; for Solubility: hydrochloride
Description: According to the solubility test described in “Chinese Pharmacopoeia 2010”, Topic and Requirement 15, the grinded sample in powder form was added to a certain amount of solvent at 25±2° C. […] The solid was deemed as dissolved when no solid was detected in the mixture by human eyes.

SMILES | solubility at 30 min (25 °C, simulated gastric fluid, thermodynamic from solid) | Solubility
CC(=O)Oc1cc2c(s1)CCN(C(C(=O)C1CC1)c1ccccc1F)C2.Cl (stereo not shown) [Form B2, prasugrel hydrochloride] | 40 mg/mL | 
CC(=O)Oc1cc2c(s1)CCN(C(C(=O)C1CC1)c1ccccc1F)C2.Cl (stereo not shown) [Form H1, prasugrel hydrochloride] |  | 50 mg/mL
CC(=O)Oc1cc2c(s1)CCN(C(C(=O)C1CC1)c1ccccc1F)C2.Cl (stereo not shown) [Form H2, prasugrel hydrochloride] |  | 50 mg/mL
CC(=O)Oc1cc2c(s1)CCN(C(C(=O)C1CC1)c1ccccc1F)C2.Cl (stereo not shown) [Form H3, prasugrel hydrochloride] |  | 50 mg/mL
